Assay results: US10294202B2, “Pyrrolidinones as herbicides” (FMC Corporation, priority 2013, dated 2019)

Experiments:
[1] = tested on: giant foxtail; experiment: Test A pre-/postemergence herbicide test; assay type: in vivo, Setaria faberii; details: for Plant response rating, Foxtail, Giant: 0 to 100 scale
Procedure, shortened: (§1)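 Both application timings used compounds in a non-phytotoxic solvent plus surfactant. Pre-emergence: soil sprayed directly after seeding into loam/sand. Post-emergence: foliage of 2–10 cm seedlings (1–2 leaves) sprayed. Injury rated ~10 days later, 0–100.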

[2] = tested on: barnyardgrass; experiment: Test C pre-/postemergence herbicide test; assay type: in vivo, Echinochloa crus-galli; details: for Barnyardgrass plant response rating: scale 0 to 100, 0 is no effect and 100 is complete control
Procedure, shortened: (§2)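 Herbicidal effect was judged by eye 13 to 15 days after treatment in the greenhouse, using a 0–100 scale against controls. Chemicals in a non-phytotoxic solvent with surfactant were sprayed onto planted loam/sand soil or onto plants 2 to 18 cm tall in a peat-based growing medium.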

[3] = tested on: nutsedge, yellow; experiment: Test C pre-/postemergence herbicide test; assay type: in vivo, Cyperus esculentus
Procedure, shortened: as §2

[4] = tested on: lambsquarters; experiment: Test C pre-/postemergence herbicide test; assay type: in vivo, Chenopodium album
Procedure, shortened: as §2

[5] = tested on: oilseed rape; experiment: Test C pre-/postemergence herbicide test; assay type: in vivo, Brassica napus
Procedure, shortened: as §2

[6] = tested on: ducksalad; experiment: Test B flooded paddy test; assay type: in vivo, Heteranthera limosa; details: 500 g ai/ha, Flood; scale of 0 to 100 where 0 is no effect and 100 is complete control
Procedure, shortened: (§3)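 Plants were grown to the 2-leaf stage, then pots were flooded to 3 cm above the soil and compound was applied directly into the paddy water, with that depth held throughout. After 13 to 15 days in a greenhouse, injury was rated visually against untreated controls on a 0 to 100 scale (100 = complete control).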

[7] = tested on: pigweed; experiment: Test C pre-/postemergence herbicide test; assay type: in vivo, Amaranthus retroflexus
Procedure, shortened: as §2

[8] = tested on: crabgrass, large; experiment: Test C pre-/postemergence herbicide test; assay type: in vivo, Digitaria sanguinalis
Procedure, shortened: as §2

[9] = tested on: rice; experiment: Test B flooded paddy test; assay type: in vivo, Oryza sativa; details: 500 g ai/ha, Flood; scale of 0 to 100 where 0 is no effect and 100 is complete control
Procedure, shortened: as §3

[10] = tested on: blackgrass; experiment: Test C pre-/postemergence herbicide test; assay type: in vivo, Alopecurus myosuroides; details: for Blackgrass plant response rating: scale 0 to 100, 0 is no effect and 100 is complete control
Procedure, shortened: as §2

[11] = tested on: wheat; experiment: Test A pre-/postemergence herbicide test; assay type: in vivo, Triticum aestivum; details: Postemergence; for Plant response rating, Wheat: 125 g ai/ha, 0 to 100 scale, 0 is no effect, 100 is complete control; for Wheat plant response rating (0 to 100 scale, 0 is no effect, 100 is complete control): 500 g ai/ha
Procedure, shortened: as §1

[12] = tested on: barnyardgrass; experiment: Test B flooded paddy test; assay type: in vivo, Echinochloa crus-galli; details: 500 g ai/ha, Flood; scale of 0 to 100 where 0 is no effect and 100 is complete control
Procedure, shortened: as §3

[13] = 125 g ai/ha, visual rating, 0 no effect, 100 complete control, approximately 10 days, preemergence
[14] = Postemergence, 125 g ai/ha, 0 is no effect, 100 is complete control
[15] = preemergence, 500 g ai/ha, 0 is no effect and 100 is complete control
[16] = Postemergence, 31 g ai/ha, scale 0 to 100 (0 no effect, 100 complete control)
[17] = Postemergence, 62 g ai/ha, scale 0 (no effect) to 100 (complete control)
[18] = Postemergence, 125 g ai/ha, scale 0 to 100 (0 no effect, 100 complete control)
[19] = Postemergence, 250 g ai/ha, scale 0 to 100 (0 no effect, 100 complete control)
[20] = Preemergence, 62 g ai/ha, scale 0 to 100
[21] = Preemergence, 125 g ai/ha, scale 0 to 100 (0 no effect, 100 complete control)
[22] = Preemergence, 31 g ai/ha, scale 0 to 100, 0 is no effect and 100 is complete control
[23] = Preemergence, 62 g ai/ha, scale 0 to 100 (0 no effect, 100 complete control)

Structure (SMILES): O=C1NCC(c2ccc(C(F)(F)F)cc2)C1C(=O)Nc1ccc(F)c(F)c1F (stereo not drawn) [Compound 232]
- Plant response rating, Foxtail, Giant [1, 13]: 90
- Plant response rating, Foxtail, Giant [1, 14]: 90
- Foxtail, Giant plant response rating (0 to 100 scale, 0 is no effect, 100 is complete control) ([1]; Postemergence, 500 g ai/ha): 90
- Plant response rating, Foxtail, Giant [1, 15]: 90
- Plant response rating, Barnyardgrass [2, 16]: 5
- Plant response rating, Barnyardgrass [2, 17]: 55
- Plant response rating, Barnyardgrass [2, 18]: 70
- Plant response rating, Barnyardgrass [2, 19]: 75
- Barnyardgrass plant response rating ([2]; Preemergence, 31 g ai/ha): 85
- Plant response rating, Barnyardgrass [2, 20]: 85
- Plant response rating, Barnyardgrass [2, 21]: 95
- Plant response rating (scale of 0 to 100; 0 is no effect, 100 is complete control), Barnyardgrass ([2]; Preemergence, 250 g ai/ha): 95
- Plant response rating, Nutsedge, Yellow [3, 16]: 0
- Plant response rating, Nutsedge, Yellow [3, 17]: 0
- Plant response rating, Nutsedge, Yellow [3, 18]: 5
- Plant response rating, Nutsedge, Yellow [3, 19]: 5
- Nutsedge, Yellow plant response rating [3, 22]: 0
- Nutsedge, Yellow plant response rating [3, 23]: 0
- Plant response rating, Nutsedge, Yellow [3, 21]: 0
- Plant response rating (scale of 0 to 100), Nutsedge, Yellow ([3]; Preemergence, 250 g ai/ha): 100
- Plant response rating, Lambsquarters [4, 16]: 80
- Plant response rating, Lambsquarters [4, 17]: 85
- Plant response rating, Lambsquarters [4, 18]: 85
- Plant response rating, Lambsquarters [4, 19]: 85
- Lambsquarters plant response rating [4, 22]: 75
- Lambsquarters plant response rating [4, 23]: 85
- Plant response rating, Lambsquarters [4, 21]: 90
- Plant response rating (scale of 0 to 100), Lambsquarters ([4]; Preemergence, 250 g ai/ha): 90
- Plant response rating, Oilseed Rape [5, 16]: 0
- Plant response rating, Oilseed Rape [5, 17]: 50
- Plant response rating, Oilseed Rape [5, 18]: 65
- Plant response rating, Oilseed Rape [5, 19]: 40
- Oilseed Rape plant response rating [5, 22]: 30
- Oilseed Rape plant response rating [5, 23]: 30
- Plant response rating, Oilseed Rape [5, 21]: 50
- Plant response rating (scale of 0 to 100), Oilseed Rape ([5]; Preemergence, 250 g ai/ha): 85
- Plant response rating, Ducksalad [6]: 100
- Plant response rating, Pigweed [7, 16]: 80
- Plant response rating, Pigweed [7, 17]: 85
- Plant response rating, Pigweed [7, 18]: 85
- Plant response rating, Pigweed [7, 19]: 85
- Pigweed plant response rating [7, 22]: 85
- Pigweed plant response rating [7, 23]: 85
- Plant response rating, Pigweed [7, 21]: 85
- Plant response rating (scale of 0 to 100), Pigweed ([7]; Preemergence, 250 g ai/ha): 95
- Plant response rating, Crabgrass, Large [8, 16]: 25
- Plant response rating, Crabgrass, Large [8, 17]: 35
- Plant response rating, Crabgrass, Large [8, 18]: 60
- Plant response rating, Crabgrass, Large [8, 19]: 75
- Crabgrass, Large plant response rating [8, 22]: 85
- Crabgrass, Large plant response rating [8, 23]: 90
- Plant response rating, Crabgrass, Large [8, 21]: 90
- Plant response rating (scale of 0 to 100), Crabgrass, Large ([8]; Preemergence, 250 g ai/ha): 90
- Plant response rating, Rice [9]: 20
- Plant response rating, Blackgrass [10, 16]: 0
- Plant response rating, Blackgrass [10, 17]: 0
- Plant response rating, Blackgrass [10, 18]: 0
- Plant response rating, Blackgrass [10, 19]: 0
- Blackgrass plant response rating ([10]; Preemergence, 31 g ai/ha): 60
- Plant response rating, Blackgrass [10, 20]: 70
- Plant response rating, Blackgrass [10, 21]: 70
- Plant response rating (scale of 0 to 100), Blackgrass ([10]; Preemergence, 250 g ai/ha): 85
- Plant response rating, Wheat [11]: 30
- Wheat plant response rating (0 to 100 scale, 0 is no effect, 100 is complete control) [11]: 50
- Plant response rating, Barnyardgrass [12]: 85

Structure (SMILES): O=C1NCC(c2ccc(C(F)(F)F)cc2)C1C(=O)Nc1ccccc1Cl (stereo not drawn) [Compound 233]
- Plant response rating, Foxtail, Giant [1, 13]: 90
- Plant response rating, Foxtail, Giant [1, 14]: 90
- Foxtail, Giant plant response rating (0 to 100 scale, 0 is no effect, 100 is complete control) ([1]; Postemergence, 500 g ai/ha): 90
- Plant response rating, Foxtail, Giant [1, 15]: 90
- Barnyardgrass plant response rating ([2]; Preemergence, 31 g ai/ha): 80
- Plant response rating, Barnyardgrass [2, 20]: 75
- Plant response rating, Barnyardgrass [2, 21]: 85
- Plant response rating (scale of 0 to 100; 0 is no effect, 100 is complete control), Barnyardgrass ([2]; Preemergence, 250 g ai/ha): 90
- Nutsedge, Yellow plant response rating [3, 22]: 0
- Nutsedge, Yellow plant response rating [3, 23]: 0
- Plant response rating, Nutsedge, Yellow [3, 21]: 0
- Plant response rating (scale of 0 to 100), Nutsedge, Yellow ([3]; Preemergence, 250 g ai/ha): 0
- Lambsquarters plant response rating [4, 22]: 85
- Lambsquarters plant response rating [4, 23]: 85
- Plant response rating, Lambsquarters [4, 21]: 95
- Plant response rating (scale of 0 to 100), Lambsquarters ([4]; Preemergence, 250 g ai/ha): 90
- Oilseed Rape plant response rating [5, 22]: 0
- Oilseed Rape plant response rating [5, 23]: 40
- Plant response rating, Oilseed Rape [5, 21]: 80
- Plant response rating (scale of 0 to 100), Oilseed Rape ([5]; Preemergence, 250 g ai/ha): 85
- Plant response rating, Ducksalad [6]: 100
- Pigweed plant response rating [7, 22]: 50
- Pigweed plant response rating [7, 23]: 50
- Plant response rating, Pigweed [7, 21]: 60
- Plant response rating (scale of 0 to 100), Pigweed ([7]; Preemergence, 250 g ai/ha): 70
- Crabgrass, Large plant response rating [8, 22]: 90
- Crabgrass, Large plant response rating [8, 23]: 90
- Plant response rating, Crabgrass, Large [8, 21]: 90
- Plant response rating (scale of 0 to 100), Crabgrass, Large ([8]; Preemergence, 250 g ai/ha): 90
- Plant response rating, Rice [9]: 0
- Blackgrass plant response rating ([10]; Preemergence, 31 g ai/ha): 30
- Plant response rating, Blackgrass [10, 20]: 45
- Plant response rating, Blackgrass [10, 21]: 60
- Plant response rating (scale of 0 to 100), Blackgrass ([10]; Preemergence, 250 g ai/ha): 90
- Plant response rating, Wheat [11]: 0
- Wheat plant response rating (0 to 100 scale, 0 is no effect, 100 is complete control) [11]: 20
- Plant response rating, Barnyardgrass [12]: 60
